Source: patent US20110142914A1, “INHALABLE COMPOSITIONS HAVING ENHANCED BIOAVAILABILITY” (CYTOTECH LABS, LLC, priority 2007, published 2011)

Tested on: IL-12
Assay: Inflammatory response to pulmonary administration: BAL supernatant ELISA for IL-12 elevation
Assay type: in vivo
Details: mice
Procedure: Inflammatory response to the administration of CoQ10 (or the liposomal concentrate of CoQ10 produced in Example 1 above) to the lungs. Surgery is performed on sacrificed mice to expose the pleural cavity and trachea at the throat. […] An aliquot (about 0.75 mL) of phosphate buffered saline is instilled through the cannula into the lungs and removed to wash the bronchial and alveolar surfaces. This process is repeated for a total of three washes. The phosphate buffered saline containing cells is placed into centrifuge vials and centrifuged at about 3000 rpm (MiniSpin Plus, Eppendorf International, Hamburg, Del.). The supernatant is removed leaving the collected cells in the pellet. The supernatant from the BAL (Bronchoalveolar Lavage) is analyzed by enzyme-linked immunosorbent assay (ELISA) for IL-12 elevation (n=2 per sample tested).

COC1=C(OC)C(=O)C(C/C=C(\C)CC/C=C(\C)CC/C=C(\C)CC/C=C(\C)CC/C=C(\C)CC/C=C(\C)CC/C=C(\C)CC/C=C(\C)CC/C=C(\C)CCC=C(C)C)=C(C)C1=O [CoQ10, Coenzyme Q10]
inflammation of the lung: not a cause of inflammation of the lung
rise in IL-12 levels (BAL supernatant, ELISA) (n=2 per sample tested): not connected to a rise in IL-12 levels
